Laboratory results from patent US20040198774A1, “Preventive and/or remedial agent for disease attributable to arteriosclerotic activity” (priority 2001, published 2004).

What was measured:
[1] = tested on: VCAM-1 expression in human aortic endothelial cells (HAEC); test: Expression of VCAM-1 in TNF-α stimulated human aortic endothelial cells (cell ELISA); type: cell-based; settings: test agent 0.03 to 30 μM, TNF-α 10 ng/mL for 4 hours, FIG. 1
Method: An effect on the expression of adhesion molecules in vascular endothelial cells was investigated using human aortic endothelial cells (available from Clonetics Corp., USA, and hereinafter abbreviated as “HAEC”). In usual, the HAEC cells were cultured in EGM-2 medium (Clonetics) containing 2% FBS (Clonetics) in a CO2 incubator (5% CO2, 37° C.). On the first day, the HAEC cells suspended in EGM-2 medium containing 2% FBS were seeded in 96-well plates at 1×10^5 cells/well and then cultured. On the second day, after the cells were washed with PBS, the culture medium was replaced with 200 μL of EGM-2 medium containing 0.4% FBS and the test agent at various concentrations (0.03 to 30 μM) (final DMSO concentration: 0.1%) to culture the cells for 24 hours. On the third day, after the cells were washed with PBS, the culture medium was replaced with 200 μL of EGM-2 medium containing 0.4% FBS, TNF-α (10 ng/mL) and the test agent at various concentrations (0.03 to 30 μM) (final DMSO concentration: 0.1%) to stimulate the cells for 4 hours. After stimulation with TNF-α, the cells were washed with PBS, and then the amount of VCAM-1 expressed was evaluated according to the following cell ELISA method using an anti-human VCAM-1 antibody solution (PharMingen). Namely, the cells were fixed and blocked using paraformaldehyde, and then 200 μL of the anti-human VCAM-1 antibody solution (PharMingen) was added as a primary antibody to induce a primary antibody response for overnight incubation. Next day, 200 μL of HRP-labeled anti-Mouse IgG (γ+L) Goat F (Ab7)2 was added as a secondary antibody to induce a secondary antibody response for 4 hours, and then a substrate solution (ortho-phenylenediamine and hydrogen peroxide) was added. After reaction, the absorbance was measured using a microplate spectrophotometer, and the obtained absorbance was used as an index of the amount of VCAM-1 expressed.

[2] = tested on: MCP-1 secretion from human aortic endothelial cells (HAEC); test: Secretion of MCP-1 from TNF-α stimulated human aortic endothelial cells (ELISA); type: cell-based; settings: test agent 0.03 to 30 μM, TNF-α 10 ng/mL for 4 hours, FIG. 2
Method: An effect on the secretion of MCP-1 from vascular endothelial cells was investigated using human aortic endothelial cells (available from Clonetics Corp., USA, and hereienafter abbreviated as “HAEC”). In usual, the HAEC cells were cultured in EGM-2 medium (Clonetics) containing 2% FBS (Clonetics) in a CO2 incubator (5% CO2, 37° C.). On the first day, the HAEC cells suspended in EGM-2 medium containing 2% FBS were seeded in 96-well plates at 1×10^5 cells/well and then cultured. On the second day, after the cells were washed with PBS, the culture medium was replaced with 200 μL of EGM-2 medium containing 0.4% FBS and the test agent at various concentrations (0.03 to 30 μM) (final DMSO concentration: 0.1%) to culture the cells for 24 hours. On the third day, after the cells were washed with PBS, the culture medium was replaced with 200 μL of EGM-2 medium containing 0.4% FBS, TNF-α (10 ng/mL), and the test agent at various concentrations (0.03 to 30 μM) (final DMSO concentration: 0.1%) to stimulate the cells for 4 hours. After stimulation with TNF-α, the culture medium was collected to measure the MCP-1 concentration of the culture medium by the use of a human MCP-1 ELISA kit (Biosource).

[3] = target: T1, human PPARδ (Homo sapiens, UniProt Q03181); test: PPARδ transcription activation, Gal4-hPPARδ (LBD)/Gal4-Luc reporter in 293 T cells; type: cell-based; settings: Gal4-hPPARδ (LBD) luciferase reporter, 32 hours exposure, 0.03 to 30 μM, read-out: EC50 values of PPARs transcription activation effect, PPARδ
T1 construct: expressed in transfected cells; host or cells: 293 T cells
T1 sequence (Q03181 211-439 limits assumed): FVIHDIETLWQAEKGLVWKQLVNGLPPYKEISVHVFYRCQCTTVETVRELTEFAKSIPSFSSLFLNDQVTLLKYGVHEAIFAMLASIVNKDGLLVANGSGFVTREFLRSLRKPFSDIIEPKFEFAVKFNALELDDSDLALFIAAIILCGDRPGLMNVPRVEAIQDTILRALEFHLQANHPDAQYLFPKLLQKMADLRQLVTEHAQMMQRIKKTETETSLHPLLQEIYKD
Method: (§1) On the second day, a transfection mixture, which contained with 9 μL of TransIT-LT1 (Takara), 2 μg of the Gal4-hPPARα (LBD) vector, the Gal4-hPPARγ (LBD) vector or the Gal4-hPPARδ (LBD) vector, 1 μg of the Gal4-Luc and 200 μL of DMEM (without FBS), was gently added to the cells at 200 μL per well. The cells were cultured all day and night to carry out gene introduction to the cells. For the investigation of the specificity of the effect on the introduced PPAR genes, gene introduction was carried out in the same manner described above using a vector without PPAR ligand-binding domain (hereinafter abbreviated as a “Gal4-control vector”). On the third day, the cells in 3 wells of the 6-well plates were combined to adjust the concentration of cells to 3×10^5 cells/mL, and the obtained one was dispensed in 96-well plates at 100 μL/well to culture the cells. On the fourth day, the culture medium was replaced with 50 μL of the DMEM (+) containing the test compound at various concentrations (0.03 to 30 μM) (final DMSO concentration: 0.1%) to culture the cells. After the cells were exposed to the compound for 32 hours, 50 μL of Luc-Screen (Applied Biosystems) was added. 70 μL of the reaction solution in each well was moved to white plates to measure luminescence emitted due to the reaction of luciferase by the use of a Microplate Luminometer (EG & G berthold, LB96P).

[4] = target: T2, human PPARγ (Homo sapiens, UniProt P37231); test: PPARγ transcription activation, Gal4-hPPARγ (LBD)/Gal4-Luc reporter in 293 T cells; type: cell-based; settings: Gal4-hPPARγ (LBD) luciferase reporter, 32 hours exposure, 0.03 to 30 μM, read-out: EC50 values of PPARs transcription activation effect, PPARγ
T2 construct: expressed in transfected cells; host or cells: 293 T cells
T2 sequence (P37231 238-503 limits assumed): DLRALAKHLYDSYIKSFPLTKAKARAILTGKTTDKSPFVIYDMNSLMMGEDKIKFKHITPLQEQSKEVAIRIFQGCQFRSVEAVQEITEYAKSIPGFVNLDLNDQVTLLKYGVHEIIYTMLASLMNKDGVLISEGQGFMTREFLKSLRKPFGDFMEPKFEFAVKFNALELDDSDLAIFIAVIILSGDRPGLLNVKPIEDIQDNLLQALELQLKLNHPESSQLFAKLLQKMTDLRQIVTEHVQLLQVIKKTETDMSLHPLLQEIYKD

[5] = target: T3, human PPARα (Homo sapiens, UniProt Q07869); test: cell-based
T3 sequence (Q07869 239-466 limits assumed): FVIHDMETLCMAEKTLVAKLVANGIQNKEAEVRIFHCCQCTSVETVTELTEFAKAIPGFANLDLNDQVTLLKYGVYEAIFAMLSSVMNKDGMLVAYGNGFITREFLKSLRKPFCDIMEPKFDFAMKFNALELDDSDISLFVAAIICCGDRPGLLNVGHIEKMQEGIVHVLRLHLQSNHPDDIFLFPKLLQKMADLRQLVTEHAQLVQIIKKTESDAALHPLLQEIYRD
Method: as §1

EC50 [3] [nM] | EC50 [4] [nM] | EC50 [5] [nM] | SMILES | effect on the expression of VCAM-1 induced by stimulation with TNF-α [1] | effect on the secretion of MCP-1 induced by stimulation with TNF-α [2]
– | – | – | Cc1cccc(Nc2cc(Cl)nc(SCC(=O)O)n2)c1C [Wy-14643] | suppressed | no effect
– | – | – | CCc1ccc(CCOc2ccc(CC3SC(=O)NC3=O)cc2)nc1 (stereo not drawn) [Pioglitazone] | no effect | no effect
– | – | – | CN(CCOc1ccc(CC2SC(=O)NC2=O)cc1)c1ccccn1 (stereo not drawn) [Rosiglitazone] | no effect | no effect
1200 | 6200 | 1000 | O=C1NC(=O)C(Cc2ccc3cc(OCc4ccccc4F)ccc3c2)S1 (stereo not drawn) [MCC-555, 5-[6-(2-fluorobenzyloxy)-2-naphthyl]-methyl-thiazolidine-2,4-dione] | – | –
– | – | – | Cc1cc(SCc2sc(-c3ccc(C(F)(F)F)cc3)nc2C)ccc1OCC(=O)O [GW501516] | suppressed | suppressed
– | – | – | CC(C)OC(=O)C(C)(C)Oc1ccc(C(=O)c2ccc(Cl)cc2)cc1 [Fenofibrate] | – | no effect
